Reference: patent publication US10538497B2, “Compounds as indoleamine 2,3-dioxygenase inhibitors” (Merck Sharp & Dohme Corp., priority 2015, dated 2020)

Columns and labels:
IDO1 [1] = molecular target: T1, IDO1 (Homo sapiens (Human), UniProt P14902); experiment: IDO1 Human Whole Blood Assay; type: cell-based; settings: LPS and IFNγ 100 ng/mL, kynurenine by LC/MS/MS
Method: IDO1 Human Whole Blood Assay
LPS and IFNγ was prepared in RPMI to a 10× of final conc. (1000 ng/mL), final concentration is 100 ng/mL.
Human whole blood was drawn in sodium heparin coated tubes from healthy internal donors. Two hundred fourty μL of blood was transferred to each of the wells of a v-bottom 96 well plate. Thirty μL of compound was transferred from intermediate dilution plate, and incubated for 15 min. […] from stimulants was then transferred to blood and mixed thoroughly. Plate was covered with breathable membrane and incubated at 37° C. for overnight (18 h).
On day 2 isotope labeled standard of kunurenine and tryptophan was made in water at 10× concentration and 30 μL was added to the blood at 3 μM final concentration. The assay plates were centrifuged at 300×G for 10 min with no brake to separate plasma from red blood cells. Sixty μL of plasma samples was removed without disturbing red blood cells. Plasma was diluted with RPMI in 1:1 ratio and proteins were precipitated out with two volume of Acetonitrile. The plates was centrifuged at 4000×G for 60 min. Twenty μL of supernatant was carefully transferred to a 384 well plate contain 40 μL of 0.1% formic acid in water and analysed by LC/MS/MS.
LC/MS/MS analyses were performed using Thermo Fisher's LX4-TSQ Quantum Ultra system. This system consists of four Agilent binary high-performance liquid chromatography (HPLC) pumps and a TSQ Quantum Ultra triple quadrupole MS/MS instrument. For each sample, 5 μL were injected onto an Atlantis T3 column column (2.1 mm×150 mm, 3 μm particle size) from Waters. The mobile phase gradient pumped at 0.8 mL/min was used to elute the analytes from the column at 25° C. The elution started at 0% B increasing linearly to 25% B at 6.5 min, holding at 25% for 1 min, re-equilibrating to 10 min. Mobile phase A consisted of 0.1% formic acid in water. Mobile phase B consisted of 0.1% of formic acid in acetonitrile. Data was acquired in positive mode using a HESI interface. The operational parameters for the TSQ Quantum Ultra instrument were a spray voltage of 4000 V, capillary temperature of 380° C., vaporizer temperature 400° C., shealth gas 60 arbitrary units, Aux gas 20 arbitrary units, tube lens 85 and collision gas 1.2 mTorr. SRM chromatograms of kynurenine (Q1: 209.2>Q3:94.0) and internal standard (Q1: 215.3>Q3:98.2) were collected for 90 sec. The peak area was integrated by Xcalibur Quan software. The ratios between the kynurenine generated in the reaction and 2D6-Kynurenine spiked-in internal standard were used to generate percentage inhibition and IC50 values. Compounds were titrated and IC50's were calculated by 4 parameter sigmoidal curve fitting formula.

IDO1 [2] = molecular target: T1, IDO1; experiment: IDO1 Cellular Assay in Frozen HEK293 Cells Transiently Transfected with Human IDO1; type: cell-based; settings: HEK293 cells transiently transfected with human IDO1; read-out: IDO1 HEK293 Cell Assay, IC50
IDO1 [3] = molecular target: T1, IDO1; experiment: IDO1 Cellular Assay in Hela Cells Stimulated with IFNγ; type: cell-based; settings: Hela cells stimulated with IFNγ 100 ng/mL; read-out: IDO1 HELA Cell Assay, IC50
IDO1 [4] = molecular target: T1, IDO1; experiment: IDO1 Enzyme Assay; settings: HIS-tagged recombinant IDO1, 40 nM
[5] = read-out: IDO1 Enzyme Assay, IC50

T1 sequence (P14902 whole entry): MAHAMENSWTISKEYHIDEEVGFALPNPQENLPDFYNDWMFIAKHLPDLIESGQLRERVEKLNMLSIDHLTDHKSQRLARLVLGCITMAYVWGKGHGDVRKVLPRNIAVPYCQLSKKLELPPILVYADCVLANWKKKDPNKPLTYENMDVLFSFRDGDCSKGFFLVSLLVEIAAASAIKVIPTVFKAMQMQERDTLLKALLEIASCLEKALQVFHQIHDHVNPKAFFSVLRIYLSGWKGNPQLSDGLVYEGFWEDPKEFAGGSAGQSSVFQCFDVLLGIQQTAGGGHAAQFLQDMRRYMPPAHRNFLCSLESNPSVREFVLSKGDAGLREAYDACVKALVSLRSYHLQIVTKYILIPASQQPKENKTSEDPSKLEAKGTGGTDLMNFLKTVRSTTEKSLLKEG

Compound	IC50 (IDO1 [1])	IC50 (IDO1 [2])	IC50 (IDO1 [3])	IC50 (IDO1 [4]; [5])	IC50 (IDO1 [4]; IDO1 Enzyme Assay, IC50, nM)
O=C(CSc1nonc1/C(=N/O)Nc1ccc(F)c(Br)c1)N[C@@H]1C[C@@H](O)[C@@H](O)C1 [Example 144, 2-({4-[N-(3-bromo-4-fluorophenyl)-N′-hydroxycarbamimidoyl]-1,2,5-oxadiazol-3-yl}sulfanyl)-N-[(1s,3R,4S)-3,4-dihydroxycyclopentyl]acetamide]	3990 nM	549 nM		75.8 nM	
CNc1c(NCCSc2nonc2/C(=N/O)Nc2ccc(F)c(Br)c2)c(=O)c1=O [Example 36, N-(3-bromo-4-fluorophenyl)-N′-hydroxy-4-((2-((2-(methylamino)-3,4-dioxocyclobut-1-en-1-yl)amino)ethyl)thio)-1,2,5-oxadiazole-3-carboximidamide]	7110 nM	206 nM	94.8 nM		
N=C(N)NCCSc1nonc1/C(=N/O)Nc1ccc(F)c(Br)c1 [Example 56, N-(3-bromo-4-fluorophenvl)-4-[(2-carbamimidamidoethyl)sulfanyl]-N′-hydroxy-1,2,5-oxadiazole-3-carboximidamide]		212 nM	94.3 nM	41.5 nM	
Cn1c(CSc2nonc2/C(=N/O)Nc2ccc(F)c(Cl)c2)n[nH]c1=O [Example 133, N-(3-chloro-4-fluorophenyl)-N′-hydroxy-4-{[(4-methyl-5-oxo-4,5-dihydro-1H-1,2,4-triazol-3-yl)methyl]sulfanyl}-1,2,5-oxadiazole-3-carboximidamide]		226 nM	235 nM	71.5 nM	
CC(C)C(O)CCSc1nonc1/C(=N/O)Nc1ccc(F)c(Br)c1 (centres unmarked) [Example 54, N-(3-bromo-4-fluorophenyl)-N′-hydroxy-4-[(3-hydroxy-4-methylpentyl)sulfanyl]-1,2,5-oxadiazole-3-carboximidamide]		204 nM	200 nM	330 nM	
O=C(NCCSc1nonc1C(=NO)Nc1ccc(F)c(Br)c1)NCC1CCOCC1 [Example 130, N-(3-bromo-4-fluorophenyl)-N′-hydroxy-4-[(2-{[(tetrahydro-2H-pyran-4-ylmethyl)carbamoyl]amino}ethyl)sulfanyl]-1,2,5-oxadiaxole-3-carboximidamide]		206 nM	371 nM	37 nM	
CC(C)OC(=O)OCOP(=O)(O)CCSc1nonc1/C(=N/O)Nc1ccc(F)c(Br)c1 [Example 9, (Z)-(((2-((4-(N-(3-bromo-4-fluorophenyl)-N′-hydroxycarbamimidoyl)-1,2,5-oxadiazol-3-yl)thio)ethyl)(hydroxy)phosphoryl)oxy)methyl isopropyl carbonate]		5120 nM	5060 nM	197 nM	
NC(CCSc1nonc1/C(=N/O)Nc1ccc(F)c(Br)c1)C(=O)O (stereo not drawn) [Example 57, S-{4-[N-(3-bromo-4-fluorophenyl)-N′-hydroxycarbamimidoyl]-1,2,5-oxadiazol-3-yl}homocysteine]		361 nM	131 nM	29.4 nM	
COCCNP(=O)(CCSc1nonc1/C(=N/O)Nc1ccc(F)c(Br)c1)NCCOC [Example 100, 4-[(2-{bis[(2-methoxyethyl)amino]phosphoryl}ethyl)sulfanyl]-N-(3-bromo-4-fluorophenyl)-N′-hydroxy-1,2,5-oxadiaxole-3-carboximidamide]		582 nM	342 nM	98.8 nM	
CCOC(=O)CCSc1nonc1/C(=N/O)Nc1ccc(F)c(Br)c1 [Example 13, Ethyl (Z)-3-((4-(N-(3-bromo-4-fluorophenyl)-N′-hydroxycarbamimidoyl)-1,2,5-oxadiazol-3-yl)thio)propanoate]		4490 nM	6120 nM	86.1 nM	

The next compounds have a lower IC50 (IDO1 [2]) than those just listed; values first:

IC50 (IDO1 [1])	IC50 (IDO1 [2])	IC50 (IDO1 [3])	IC50 (IDO1 [4]; [5])	IC50 (IDO1 [4]; IDO1 Enzyme Assay, IC50, nM)	Compound
441 nM	42.5 nM	39.5 nM	34.8 nM		OCC(O)CSc1nonc1/C(=N/O)Nc1ccc(F)c(Br)c1 (centres unmarked) [Example 17, (Z)-N-(3-bromo-4-fluorophenyl)-4-((2,3-dihydroxypropyl)thio)-N′-hydroxy-1,2,5-oxadiazole-3-carboximidamide]
3240 nM	136 nM	261 nM	119 nM		N#Cc1cc(N/C(=N\O)c2nonc2SCCNS(N)(=O)=O)ccc1F [Example 181, N-(3-cyano-4-fluorophenyl)-N′-hydroxy-4-{[2-(sulfamoylamino)ethyl]sulfanyl}-1,2,5-oxadiazole-3-carboximidamide]
	16.1 nM	47.4 nM	50.9 nM		CS(=O)(=O)NCCSc1nonc1/C(=N/O)Nc1ccc(F)c(Cl)c1 [Example 184, N-(3-chloro-4-fluorophenyl)-N′-hydroxy-4-({2-[(methylsulfonyl)amino]ethyl}sulfanyl)-1,2,5-oxadiazole-3-carboximidamide]
	35.7 nM	16.9 nM	39.3 nM		N#C/N=C(\N)NCCSc1nonc1/C(=N/O)Nc1ccc(F)c(Br)c1 [Example 85, N-(3-bromo-4-fluorophenyl)-4-{[2-(N″- cyanocarbamimidamido)ethyl]sulfanyl}-N′-hydroxy-1,2,5-oxadiazole-3-carboximidamide]
	182 nM	127 nM	116 nM		CC(O)C(CO)NC(=O)CSc1nonc1/C(=N/O)Nc1ccc(F)c(Br)c1 (centres unmarked) [Example 176, 2-({4-[N-(3-bromo-4-fluorophenyl)-N′-hydroxycarbamimidoyl]-1,2,5-oxadiazol-3-yl}sulfanyl)-N-[2-hydroxy-1-(hydroxymethyl)propyl]acetamide]
	36.9 nM	42.9 nM	41.8 nM		CNC(=O)N1CC(Sc2nonc2/C(=N/O)Nc2ccc(F)c(Br)c2)C1 [Example 81, 3-({4-[N-(3-bromo-4-fluorophenyl)-N′-hydroxycarbamimidoyl]-1,2,5-oxadiazol-3-yl}sulfanyl)-N-methylazetidine-1-carboxamide]
	166 nM	331 nM		97.6 nM	ON=C(Nc1ccc(F)c(Br)c1)c1nonc1SCCc1cscn1 [Example 152, N-(3-bromo-4-fluorophenyl)-N′-hydroxy-4-{[2-(1,3-thiazol-4-yl)ethyl]sulfanyl}-1,2,5-oxadiazole-3-carboximidamide]
	72 nM	233 nM		95.7 nM	ON=C(Nc1ccc(F)c(Br)c1)c1nonc1SCC1CCCNC1 (centres unmarked) [Example 158, N-(3-bromo-4-fluorophenyl)-N′-hydroxy-4-[(piperidin-3-ylmethyl)sulfanyl]-1,2,5-oxadiazole-3-carboximidamide]
	45.8 nM	39.7 nM	47.7 nM		CN1C(=O)NC[C@H]1CSc1nonc1/C(=N/O)Nc1ccc(F)c(Br)c1 [Example 121, N-(3-bromo-4-fluorophenyl)-N′-hydroxy-4-({[(4S)-3-methyl-2-oxoimidazolidin-4-yl]methyl}sulfanyl)-1,2,5-oxadiazole-3-carboximidamide]
	106 nM	48.1 nM	113 nM		CC(=O)NCCSc1nonc1/C(=N/O)Nc1ccc(F)c(C)c1 [Example 51, N-[2-({4-[N-(4-fluoro-3-methylphenyl)-N′-hydroxycarbamimidoyl]-1,2,5-oxadiazol-3-yl}sulfanyl)ethyl]acetamide]
	167 nM	322 nM		111 nM	ON=C(Nc1ccc(F)c(Br)c1)c1nonc1SCC1CCOCC1 [Example 162, N-(3-bromo-4-fluorophenyl)-N′-hydroxy-4-[(tetrahydro-2H-pyran-4-ylmethyl)sulfanyl]-1,2,5-oxadiazole-3-carboximidamide]
	174 nM	104 nM	74.8 nM		O/N=C(\Nc1ccc(F)c(Br)c1)c1nonc1SC1CNC1 [Example 26, (Z)-4-(azetidin-3-ylthio)-N-(3-bromo-4-fluorophenyl)-N′-hydroxy-1,2,5-oxadiazole-3-carboximidamide]
